Assay results reported in patent EP0044955B1, “Liquid herbicide mixtures” (BASF Aktiengesellschaft, priority 1980, dated 1982).
Like-named read-outs stand apart in the source and are kept apart here.

Assays:
Assay type in all cases: physicochemical
[1] = Water solubility of the solvents; conditions: for H2O-Löslichkeit des Lösungsmittels (%) Gew.-% Lösungs-mittel in Wasser: Tabelle 1 solvents; for Wasserlöslichkeit der Lösungsmittel (%): Säureamide of Tabelle 4
Source text: (§1) Beispiele von Säureamiden sind in der Tabelle 4 zusammengefaßt. Bestimmt wurden die Löslichkeiten der Substanzen 1 (Chloridazon) und 2 (Biscarbamat) wie sie in Tabelle 1 aufgeführt sind, sowie die Wasserlöslichkeit der Lösungsmittel.

[2] = Phenmedipham degradation in formulations at various temperatures
Source text: Es wurde der Abbau des Phenmedipham bei verschiedenen Temperaturen verfolgt.

[3] = Stability of Phenmedipham in solvents, 24 h storage, HPLC; conditions: 24 Std., read-out: Restwirkstoff an Phenmedipham Wirkstoffgehalt
Experimental: In der folgenden Tabelle sind die Stabilitätsuntersuchungen von Phenmedipham bei verschiedenenen Temperaturen und konstanter Zeit zusammengefaßt. Es wurden 500 mg technischer Wirkstoff in 25 ml Lösungsmittel gelöst, die Lösungen bei der entsprechend gewählten Temperatur 24 Stunden gelagert und der Restwirkstoffgehalt analytisch mit Hilfe der HPLC-Methode bestimmt.

[4] = Active ingredient stability in solvents (0,002 molar, HPLC); conditions: for remaining at 5 min, 2000 µM: Abbauzeit 5 min; for remaining at 20 min, 2000 µM: Abbauzeit 20 min; for remaining at 1 h, 2000 µM: Abbauzeit 60 min; for remaining at 7 min, 2000 µM: Abbauzeit 7 min; for remaining at 0.5 h, 2000 µM: Abbauzeit 30 min
Source text: In der Tabelle 2 wird die Wirkstoffstabilität der oben genannten Substanz 2 in verschiedenen Lösungsmitteln als Beispiel aufgeführt. […] Die Konzentration an Wirkstoff war bei diesen Untersuchungen 0,002 molar. Die Analyse wurde mit Hilfe der Hochdruckflüssigkeitschromatographie (HPLC) durchgeführt.

[5] = Solubility of Substanz 1 and Substanz 2 in solvents at room temperature
Source text: as §1

[6] = dimethylformamid (technisch), Dimethylformid (technisch), 50°C, read-out: Wirkstoffgehalt
[7] = dimethylformamid (technisch), Dimethylformid (technisch), 70°C, read-out: Wirkstoffgehalt
[8] = n-methylpyrrolidon, N-Methylpyrrolidon (rein 0,05% H2O), 50°C, read-out: Wirkstoffgehalt
[9] = n-methylpyrrolidone, N-Methylpyrrolidon (rein 0,05% H2O), 30°C, read-out: Wirkstoffgehalt

SMILES: O=C1CCCCC1 [Cyclohexanon, reference compound]
- H2O-Löslichkeit des Lösungsmittels (%) Gew.-% Lösungs-mittel in Wasser [1]: 3-4%

SMILES: CC1=CC(=O)CC(C)(C)C1 [Isophoron, reference compound]
- H2O-Löslichkeit des Lösungsmittels (%) Gew.-% Lösungs-mittel in Wasser [1]: 1,2%

SMILES: COC(=O)Nc1cccc(OC(=O)Nc2cccc(C)c2)c1 [Phenmedipham, 3-Methoxycarbonylaminophenyl-N-(3'-methyl-phenyl)-carbamat]
- Phenmedipham-Abbau Wirkstoffgehalt ([2]; formulation (g/l): 50 Phenmedipham, 150 Chloridazon, 200 Netzmittel, 50 Emulgiermittel, ad 1000 g Dimethylformamid, 50°C, 4 Wochen, 40320 min): 4,8%
- Phenmedipham-Abbau Wirkstoffgehalt ([2]; formulation (g/l): 50 Phenmedipham, 150 Chloridazon, 200 Netzmittel, 50 Emulgiermittel, ad 1000 g Dimethylformamid, Rt, 4 Wochen, 40320 min): 79,5%
- Phenmedipham-Abbau Wirkstoffgehalt ([2]; formulation (g/l): 167 Chloridazon, 83 Phenmedipham, 300 N-Methylpyrrolidon, 24 Morpholin, 100 Emulgiermittel, 326 Cyclohexanon-Destillationsrückstände (DE-PS 16 42 216, Beispiel 6/I), 50°C, 1 Stunde): 30,8%
- Phenmedipham-Abbau Wirkstoffgehalt ([2]; formulation with N-Methylpyrrolidon and Morpholin (DE-PS 16 42 216, Beispiel 6/I), 50°C, 2 Stunden): 16,4%
- Phenmedipham-Abbau Wirkstoffgehalt ([2]; formulation with N-Methylpyrrolidon and Morpholin (DE-PS 16 42 216, Beispiel 6/I), 50°C, 3 Stunden): 12,8%
- Phenmedipham-Abbau Wirkstoffgehalt ([2]; formulation with N-Methylpyrrolidon and Morpholin (DE-PS 16 42 216, Beispiel 6/I), 70°C, 1 Stunde): 3,21%
- Wirkstoffgehalt ([2]; formulation with mixture of Dimethylformamid and Isophoron instead of Dimethylformamid alone, 4 Wochen, 50° C, 40320 min): ca. 60%
- remaining at 24 h ([3]; 2-äthylhexancarbonsäureamid, 2-Äthylhexancarbonsäureamid (Nr. 9 aus Tabelle 4), 50°C): 98.1%
- remaining at 24 h ([3]; 2-äthylhexancarbonsäureamid, 2-Äthylhexancarbonsäureamid (Nr. 9 aus Tabelle 4), 70°C): 98%
- remaining at 24 h ([3]; dimethylformamid, 50°C): 9.3%
- remaining at 24 h ([3]; isophoron, 50°C): 99.3%
- remaining at 24 h ([3]; isophoron, 70°C): 96.3%
- remaining at 24 h ([3]; n,n-dipropylbuttersäureamid, N,N-Dipropylbuttersäureamid (Nr. 7 aus Tabelle 4), 50°C): 100%
- remaining at 24 h ([3]; n,n-dipropylbuttersäureamid, N,N-Dipropylbuttersäureamid (Nr. 7 aus Tabelle 4), 70°C): 97.6%
- remaining at 24 h ([3]; n,n-diäthyl-3-methyl-benzolcarbonsäureamid, N,N-Diäthyl-3-methyl-benzolcarbonsäureamid (Nr. 11 Tabelle 4), 50°C): 95.5%
- remaining at 24 h ([3]; n,n-diäthyl-3-methyl-benzolcarbonsäureamid, N,N-Diäthyl-3-methyl-benzolcarbonsäureamid (Nr. 11 Tabelle 4), 70°C): 60%

SMILES: Nc1cnn(-c2ccccc2)c(=O)c1Cl [Substanz 1, 1-Phenyl-4-amino-5-chlor-pyridazon-(6), reference compound]
- Stabilität ([4]; in the solvents of Tabelle 2): keine Schwierigkeiten

SMILES: CCOC(=O)Nc1cccc(OC(=O)Nc2ccc(F)c(Cl)c2)c1 [Substanz 2, (3-Chlor-4-fluorphenyl)carbaminsäure-3(ethoxy-carbonyl)amino-phenylester]
- remaining at 5 min, 2000 µM [4, 6]: 99.5%
- remaining at 20 min, 2000 µM [4, 6]: 98.1%
- remaining at 1 h, 2000 µM [4, 6]: 95.5%
- remaining at 7 min, 2000 µM [4, 7]: 98.5%
- remaining at 0.5 h, 2000 µM [4, 7]: 87.2%
- remaining at 1.05 h, 2000 µM ([4]; dimethylformamid (technisch), Dimethylformid (technisch), 70°C, Abbauzeit 63 min, read-out: Wirkstoffgehalt): 57.4%
- remaining at 7 min, 2000 µM ([4]; dimethylformamid (technisch), Dimethylformid (technisch), 80°C, read-out: Wirkstoffgehalt): 85.4%
- remaining at 23 min, 2000 µM ([4]; dimethylformamid (technisch), Dimethylformid (technisch), 80°C, Abbauzeit 23 min, read-out: Wirkstoffgehalt): 54.7%
- remaining at 37 min, 2000 µM ([4]; dimethylformamid (technisch), Dimethylformid (technisch), 80°C, Abbauzeit 37 min, read-out: Wirkstoffgehalt): 32.9%
- remaining at 24 h, 2000 µM ([4]; isophoron, 80°C, Abbauzeit 24 Std., read-out: Wirkstoffgehalt): 93%
- remaining at 5 min, 2000 µM [4, 8]: 92.3%
- remaining at 20 min, 2000 µM [4, 8]: 76.5%
- remaining at 1 h, 2000 µM [4, 8]: 52.8%
- remaining at 5 min, 2000 µM [4, 9]: 100%
- remaining at 0.5 h, 2000 µM [4, 9]: 96.7%
- remaining at 3.5 h, 2000 µM ([4]; n-methylpyrrolidone, N-Methylpyrrolidon (rein 0,05% H2O), 30°C, Abbauzeit 210 min, read-out: Wirkstoffgehalt): 76.3%
- Löslichkeit in % (g Substanz in 100 g Lösung bei Raumtemperatur (RT 20°C)) ([5]; in Cyclohexanon): 35,0%
- Löslichkeit in % (g Substanz in 100 g Lösung bei Raumtemperatur (RT 20°C)) ([5]; in Dimethylformamid): 47,2%
- Löslichkeit in % (g Substanz in 100 g Lösung bei Raumtemperatur (RT 20°C)) ([5]; in Dimethylsulfoxid): 55,3%
- Löslichkeit in % (g Substanz in 100 g Lösung bei Raumtemperatur (RT 20°C)) ([5]; in Isophoron): 33,7%
- Löslichkeit in % (g Substanz in 100 g Lösung bei Raumtemperatur (RT 20°C)) ([5]; in N-Methylpyrrolidon): 30,8%
- Löslichkeit in (%) ([5]; in Säureamid Nr. 1, Rt): 39,9%
- Löslichkeit in (%) ([5]; in Säureamid Nr. 2, Rt): 37,0%
- Löslichkeit in (%) ([5]; in Säureamid Nr. 3, Rt): 43,8%
- Löslichkeit in (%) ([5]; in Säureamid Nr. 4, Rt): 45,4%
- Löslichkeit in (%) ([5]; in Säureamid Nr. 5, Rt): 41,6%
- Löslichkeit in (%) ([5]; in Säureamid Nr. 6, Rt): 49,0%
- Löslichkeit in (%) ([5]; in Säureamid Nr. 7, Rt): 38,8%
- Löslichkeit in (%) ([5]; in Säureamid Nr. 8, Rt): 45,5%
- Löslichkeit in (%) ([5]; in Säureamid Nr. 9, Rt): 29,1%
- Löslichkeit in (%) ([5]; in Säureamid Nr. 10, Rt): 39,5%
- Löslichkeit in (%) ([5]; in Säureamid Nr. 11, Rt): 29,4%
- Löslichkeit in (%) ([5]; in Säureamid Nr. 12, Rt): 33,3%
- Löslichkeit in (%) ([5]; in Säureamid Nr. 13, Rt): 31,1%

SMILES: CCCC(=O)N(CCC)CCC [compound 7]
- Wasserlöslichkeit der Lösungsmittel (%) [1]: 1,5%

SMILES: CCCN(CCC)C(=O)C(C)C [compound 8]
- Wasserlöslichkeit der Lösungsmittel (%) [1]: 1,6%

SMILES: CCCCC(CC)C(=O)N(C)C (centres unmarked) [compound 9]
- Wasserlöslichkeit der Lösungsmittel (%) [1]: 1,5%

SMILES: CCN(CC)C(=O)c1ccccc1 [compound 10]
- Wasserlöslichkeit der Lösungsmittel (%) [1]: 3,7%

SMILES: CCN(CC)C(=O)c1cccc(C)c1 [compound 11]
- Wasserlöslichkeit der Lösungsmittel (%) [1]: 2,2%

SMILES: CCCN(CCC)C(=O)c1ccccc1 [compound 12]
- Wasserlöslichkeit der Lösungsmittel (%) [1]: 0,5%
